Data as given in patent US20180284095A1, “BIOMARKERS ASSOCIATED WITH LSD1 INHIBITORS AND USES THEREOF” (Oryzon Genomics, S.A., priority 2015, published 2018).

What was measured:
S100A9 = test: Microarray gene expression in brain, spleen and liver of Hsd:Athymic Nude-Foxn1nu mice (Example 7); assay type: in vivo, mouse
Description: (§1) Total RNA was extracted from samples using the RNeasy extraction kit (Qiagen). The quality and concentration of the RNA was analyzed using the Agilent 2100 bioanalyzer and NanoDrop™ ND-1000 (Thermo Scientific). Samples with RNA integrity number (RIN)<6.0 were discarded. Total RNA (0.5 μg) amplification and labelling with Cy3 or Cy5 was carried out using the Eberwein mRNA amplification procedure (Van Gelder et al, Proc Natl Acad Sci USA 1990, 87:1663-1667) employing the MessageAmp™ aRNA amplification kit from Ambion (Applied Biosystems) following the manufacturer's instructions with minor modifications. As hybridization controls, plant mRNAs were transcribed from a plasmid containing the Zea mays Xet (xyloglucan endo-transglycosylase) cDNA and from a plasmid containing the Zea mays Zmmyb42 cDNA, independently prepared Cy3 and Cy5 labelled aRNA from these two RNAs using the Eberwein mRNA amplification procedure (as disclosed in Cerdà et al, Gen Comp Endocrinol 2008, 156:470-481).
(§2) The Cy3- and Cy5-labelled cRNAs and spikes were combined and hybridized to the microarray described in Example 2.6 for 17 h at 60° C. using Agilent's gaskets G2534-60002, G2534A hybridization chambers and DNA Hybridization Oven G2545A, according to the manufacturer's instructions. More specifically, equal amounts of Cy3 and Cy5 labeled Xet aRNA as well as equal amounts of Cy3 and Cy5 labeled Zmmyb42 aRNA were spiked into each mixture hybridized to the array. Arrays were washed and raw data were obtained using Agilent's DNA Microarray Scanner G2505B and Feature Extraction software (v10.1). The raw fluorescence intensity data were processed using applicant's proprietary software, and consists in the following operations:
(§3) Data normalization was carried out by an improved version of the nonlinear Q-splines normalization method (Workman et al., Genome Biol 2002, 3(9):research0048.1-0048.16). Normalization results were presented graphically as MA plots, as first described by Dudoit et al (Dudoit et al, Statistica Sinica, 2002, 12:111-139). Each point corresponds to a probe of the DNA array. M values (vertical axis) are the log-differential expression ratios. A values (horizontal axis) are the log-intensities of the spots. M and A are calculated from the Cy5 and Cy3 intensity values as of each spot. The DNA Array data is normalized using an improved version of non-linear Q-Splines normalization described by Workman et al., Genome Biol 2002, 3(9):research0048.1-0048.16. This process is useful to correct the deviation of the M values from the statistical assumption that most of the spots have M=0 in MA plots. The method allows the adjustment of all M values to form a cloud centered at M=0 in all intensity ranges. The data used to calculate the normalization fitting curve is the totality of the raw measurement dataset, excluding the signals for the probes for the spiked-in plant RNA controls and negative controls. In order to be able to normalize properly the data among all the experiments, the probe-set must include an important group of genes that should have no change (M=0) in the experiment. The normalization function is then applied to all the data, including controls.
(§4) Normalized and log-transformed data were used to calculate log 2 (sample/control) and Fold Change (FC) values. No background subtraction was applied to the signal intensity values during data processing, permitting robust selection of differentially expressed genes with low expression levels at the cost of potential sub-estimation of change when intensity levels are close to the array background level.
(§5) Powered Compound 3, 4 or 5 was dissolved in a 20% solution of 2-hydroxypropyl-R-cyclodextrin in water at the appropriate concentrations, vortexed and placed in an ultrasonic bath for 5 minutes.
(§6) Hsd:Athymic Nude-Foxn1nu mice were maintained in air- and temperature-controlled cages with regular supply of water and food. A maximum of 6 mice/cage were raised. […]

S100A8 = test: as above; assay type: in vivo, mouse
Description: as §1, §2, §3, §4, §5, §6

With `N[C@H]1CCN(CCN[C@H]2C[C@@H]2c2ccc(-c3cccc(C(F)(F)F)c3)cc2)C1` (racemic) [Compound 5, (S)-1-(2-(((trans)-2-(3′-(trifluoromethyl)-[1,1′-biphenyl]-4-yl)cyclopropyl)amino)ethyl)pyrrolidin-3-amine] the “Hybridization signal sample_Cy5” value (S100A9; BRAIN, S100A9, 3.3 mg/kg) was 746.537, the “log2 (sample/control)” value (S100A9; BRAIN, S100A9, 3.3 mg/kg vs VEH) was −0.9635 and the “Hybridization signal sample_Cy5” value (S100A9; BRAIN, S100A9, 11 mg/kg) was 60.5479. For the same molecule, the “log2 (sample/control)” value (S100A9; BRAIN, S100A9, 11 mg/kg vs VEH) was −4.54, the “Hybridization signal sample_Cy5” value (S100A9; BRAIN, S100A9, 33 mg/kg) was 58.3941 and the “log2 (sample/control)” value (S100A9; BRAIN, S100A9, 33 mg/kg vs VEH) was −4.697. The “Hybridization signal sample_Cy5” value (S100A9; LIVER, S100A9, 3.3 mg/kg) was 987.357, the “log2 (sample/control)” value (S100A9; LIVER, S100A9, 3.3 mg/kg vs VEH) was −0.5728 and the “Hybridization signal sample_Cy5” value (S100A9; LIVER, S100A9, 11 mg/kg) was 170.929. The “log2 (sample/control)” value (S100A9; LIVER, S100A9, 11 mg/kg vs VEH) was −3.056, the “Hybridization signal sample_Cy5” value (S100A9; LIVER, S100A9, 33 mg/kg) was 113.971 and the “log2 (sample/control)” value (S100A9; LIVER, S100A9, 33 mg/kg vs VEH) was −3.811. For the same molecule, the “Hybridization signal sample_Cy5” value (S100A9; SPLEEN, S100A9, 3.3 mg/kg) was 13461.8, the “log2 (sample/control)” value (S100A9; SPLEEN, S100A9, 3.3 mg/kg vs VEH) was −1.719 and the “Hybridization signal sample_Cy5” value (S100A9; SPLEEN, S100A9, 11 mg/kg) was 963.073. The “log2 (sample/control)” value (S100A9; SPLEEN, S100A9, 11 mg/kg vs VEH) was −5.625, the “Hybridization signal sample_Cy5” value (S100A9; SPLEEN, S100A9, 33 mg/kg) was 944.034 and the “log2 (sample/control)” value (S100A9; SPLEEN, S100A9, 33 mg/kg vs VEH) was −5.685. The “Hybridization signal sample_Cy5” value (S100A8; BRAIN, S100A8, 3.3 mg/kg) was 268.162, the “log2 (sample/control)” value (S100A8; BRAIN, S100A8, 3.3 mg/kg vs VEH) was −0.6462 and the “Hybridization signal sample_Cy5” value (S100A8; BRAIN, S100A8, 11 mg/kg) was 38.4889. The “log2 (sample/control)” value (S100A8; BRAIN, S100A8, 11 mg/kg vs VEH) was −3.263, the “Hybridization signal sample_Cy5” value (S100A8; BRAIN, S100A8, 33 mg/kg) was 36.6941 and the “log2 (sample/control)” value (S100A8; BRAIN, S100A8, 33 mg/kg vs VEH) was −3.57. For the same molecule, the “Hybridization signal sample_Cy5” value (S100A8; LIVER, S100A8, 3.3 mg/kg) was 315.439, the “log2 (sample/control)” value (S100A8; LIVER, S100A8, 3.3 mg/kg vs VEH) was −0.4761 and the “Hybridization signal sample_Cy5” value (S100A8; LIVER, S100A8, 11 mg/kg) was 73.2915. The “log2 (sample/control)” value (S100A8; LIVER, S100A8, 11 mg/kg vs VEH) was −2.357, the “Hybridization signal sample_Cy5” value (S100A8; LIVER, S100A8, 33 mg/kg) was 57.5133 and the “log2 (sample/control)” value (S100A8; LIVER, S100A8, 33 mg/kg vs VEH) was −2.909. For the same molecule, the “Hybridization signal sample_Cy5” value (S100A8; SPLEEN, S100A8, 3.3 mg/kg) was 4802.3, the “log2 (sample/control)” value (S100A8; SPLEEN, S100A8, 3.3 mg/kg vs VEH) was −1.65 and the “Hybridization signal sample_Cy5” value (S100A8; SPLEEN, S100A8, 11 mg/kg) was 382.984. For the same molecule, the “log2 (sample/control)” value (S100A8; SPLEEN, S100A8, 11 mg/kg vs VEH) was −5.38, the “Hybridization signal sample_Cy5” value (S100A8; SPLEEN, S100A8, 33 mg/kg) was 408.877 and the “log2 (sample/control)” value (S100A8; SPLEEN, S100A8, 33 mg/kg vs VEH) was −5.243.
